As a reminder, the Kd is the equilibrium constant for the complex coming apart.

Structures are written as SMILES. Read-outs that look alike come from different tables or passages of the source. Where only a bound is given, the exact number is not on record here.

We go through seven compounds from US8440827B2, “Photolabile caged transition metal complexes and methods of using the same” (Duke University, priority 2008, dated 2013).

The conditions of data set [1]: cited from earlier work.
The nature of data set [2]: Deoxyribose assay for hydroxyl radical production. As to conditions: for effect on OH• production by copper: relative to Cu2+ alone. From the text: Hydroxyl radicals, which are generated in this assay by Fenton-like conditions of copper, ascorbic acid, and H2O2, degrade deoxyribose to give thiobarbituric acid (TBA)-reactive products with absorbance at 532 nm. Ligands added to the reaction mixture attenuate the amount of TBA-reactive species by altering the coordination environment around copper. […] The 2-deoxyribose assay was used to measure hydroxyl radical formation (Halliwell, B.; Gutteridge, […]. Anal. Biochem. 1987, 165, 215-219). A mixture of copper, ascorbic acid, and hydrogen peroxide generates hydroxyl radicals by Fenton-like chemistry. Hydroxyl radicals attack 2-deoxyribose to form malondialdehyde (MDA), which upon heating with TBA under acidic conditions produces a pink chromophore (λmax=532 nm). Chelators that prevent copper from reacting with ascorbic acid and hydrogen peroxide result in less chromophore formation. All assays were performed using 20 mM NaH2PO4 buffered to pH 7.4. The following reagents were added sequentially to obtain a 1 mL buffered solution with these final concentrations: chelator (10-20 μM), CuSO4 (10 μM), 2-deoxyribose (15 mM), H2O2 (100 μM), and ascorbic acid (2 mM). For photolyzed samples, 500 μM solutions of [Cu(OH2)(cage)] in 20 mM pH 7.4 NaH2PO4 buffer were photolyzed in screwtop quartz cuvettes for 4 min in the photoreactor, then immediately diluted into the deoxyribose reaction mixtures to obtain final concentrations of 10 μM in Cu. Stock solutions of CuSO4, ascorbic acid, and H2O2 were prepared fresh daily, other solutions were prepared weekly. […] The temperature was increased to 100° C. for 20 min, then cooled to room temperature and the absorbance at 532 nm was recorded. Values are reported as A/A0 where A0 is the absorbance without chelator present and A is the absorbance with chelator added. The value for CuSO4 alone is A/A0=1. Error bars represent standard deviations from measurements done in at least triplicate.

The conditions of data set [3]: constant of the model, taken from literature; cited from earlier work.
Data set [4] in a line: Photolysis with 350 nm UV light, followed by UV-vis and LC-MS. As to conditions: pH 7.4 phosphate buffer. The format is physicochemical. From the text:
The shift in the d-d band centered at 580 nm indicates a reorganization of the coordination sphere upon photolysis. The band for the intact Cu complex 2 disappears and is replaced by bands corresponding to the expected photoproducts 3 and 4, as confirmed by their mass spectra and by comparison to a picolinamide standard for 3. […] Reduction to Cu1+ is also possible as a result of photolysis, although it would likely reoxidize to Cu2+ under these experimental conditions.
All chemicals were purchased commercially and used without further purification. […] Elemental analysis was performed by Columbia Analytical Services, Inc. IR spectra were measured on a Nicolet 380 FT-IR. High-resolution, fast-atom bombardment (HR-FABMS) mass spectra were recorded on JEOL JMS-SX-102 instrument. […] A Varian Polaris C18 (150×1.0 mm) column was used and peaks were detected by UV absorption at 254 nm. […] UV-vis spectra were recorded on a Cary 50 UV-vis spectrophotometer. […]

The nature of data set [5]: Competition study of nitrilotriacetic acid (NTA) vs. cage for Cu2+. The format is binding. The following applies: competition with NTA, 50 mM HEPES pH 7.4, 25° C., refined. On the procedure:
Solutions of CuL (where L=cage^2−) were prepared by dissolving [Cu(OH2)cage] that was recrystallized from methanol into 50 mM HEPES (N-(2-hydroxyethyl)-piperazine-N′-2-ethanesulfonic acid) buffer, pH 7.4, with initial concentrations ranging from 03-1.5 mM. The reaction vessel was a 3-mL cuvette and initial solution volumes were 1 mL. All titrations were carried out at 25° C. Aliquots (1-2 μL) of the competitive chelator NTA (100 mM) were pipetted into CuL solutions and monitored spectrophotometrically. After each addition, solutions were manually mixed and equilibrated for 5 min before data were collected. Reported errors in log β were calculated from the standard deviation of three runs.

Data set [6] can be described thus: Potentiometric and pH-dependent spectrophotometric titrations of CuL. The format is physicochemical. The following applies: for Log β (overall stability constant): pH-dependent spectrophotometric titration, 25° C., 0.1 M NaClO4, Specfit, refined. On the procedure:
Cu(II) perchlorate solutions (0.1 M) were prepared from solid Cu(ClO4)2.6H2O and standardized with 0.05 M EDTA to a murexide endpoint in ammonia buffer. NaOH, HClO4, and NaClO4 solutions (0.1 M) were prepared with boiled nanopure deionized water and were degassed upon cooling to remove dissolved carbonate. NaOH solutions were standardized by titration with both 0.2 M HCl and potassium hydrogen phthalate to a phenolphthalein end point and were stored under Ar; HClO4 stock solutions were prepared from concentrated perchloric acid and standardized by titration with standard NaOH to a phenolphthalein end point. All solutions were degassed with Ar for 45 minutes prior to each experimental run.
Titrations were carried out at 25° C. with 0.1 M NaClO4 supporting electrolyte in a 3-mL cuvette equipped with a pH probe, titrator tip, and stir bar, and blanketed in Ar to preserve an inert environment. The glass-bulb probe (Orion combination pH electrode model 8103BN filled with 3 M NaCl) was calibrated with pH 4 and 7 standard reference buffers (RICCA Chemical Company). CuL solutions were prepared by dissolving [Cu(OH2)(cage)] recrystallized from methanol in 0.1 M NaClO4 to obtain CuL concentrations in the range of 0.5 mM. Initial volumes were between 2 and 2.2 mL. A Schott TITRONIC® 110 plus autotitrator kept under constant Ar sparge was used to deliver 2 to 4 μL aliquots of acid or base through the titrator tip into the reaction cuvette. The solutions were stirred constantly and allowed to equilibrate at least 30 s after each addition before data were collected. All titrations were carried out from low to high and from high to low pH with similar results.
Titration data for the CuL complex show two ionizable protons below pH 5.

Data set [7] in a line: Potentiometric titration of the apo-ligand H2cage. The format is physicochemical. As to conditions: pH range 2 to 12.
Data set [8] is described as follows: Solubility of H2cage in solvents. In kind it is physicochemical. From the text: A ligand H2cage is obtained in a one-pot, two-step synthesis starting from 3-amino-3-(2-nitrophenyl)propionic acid. […] In the presence of Cu2+, however, protons are released from H2cage at pH 3.3 and 4.8, consistent with deprotonation of both amides.

Turning to `O=C(O)CN(CC(=O)O)CC(=O)O` [NTA, nitrilotriacetic acid, reference compound], the dissociation constant Kd in data set [1] (pH 7.4, read-out: KD for Cu2+) was 0.023 nM. Further, the “effect on OH• production by copper” value in data set [2] (pH 7.4) was “promotes OH• production”.
In the case of `O=C(O)CN(CC(=O)O)CC(=O)O` [NTAH3], in data set [3], the “Log β” value is reported as 13.76.
Turning to `NC(=O)c1ccccn1` [picolinamide], the “log value for the 1:1 species” value in data set [1] (Cu2+ : ligand 1:1) was 2.87. In data set [1] (Cu2+ : ligand 1:2), the “log value for the 1:2 species” value is on record as 5.40. Besides, the “effect on OH• production by copper” value in data set [2] (pH 7.4) is “improve the catalytic properties of the metal”.
As to `O=C(O)CN(CC(=O)O)CC(=O)O` [NTAH4], in data set [3], the “Log β” value was 14.76.
Take `O=C1CC(c2ccccc2[N+](=O)[O-])[N](C(=O)c2ccccn2)[Cu]([OH])[N]1Cc1ccccn1` (stereo not shown) [[Cu(OH2)(cage)]]: the “changes in UV-vis spectrum on exposure to UV light” value in data set [4] is given as “apparent within seconds”. The “time of photolysis until cleavage of the ligand is complete” value in data set [4] (LC-MS) is at most 4 min. For the same compound, the “Log β” value in data set [5] was found to be 10.79 ± 0.06. Also, the “OH• production after uncaging by UV photolysis” value in data set [2] (photolyzed for 4 min, increase in A532) is “increases OH• production”. The dissociation constant Kd in data set [6] (pH 7.4, converted from log β, read-out: conditional dissociation constant, KD) turned out to be 0.016 nM. The figures for the “Log β (overall stability constant)” value in data set [6] and in data set [6] (listed as CuL) were 10.8 and 10.80 ± 0.01, respectively.
For `O=C(CC(NC(=O)c1ccccn1)c1ccccc1[N+](=O)[O-])NCc1ccccn1` (stereo not shown) [H2cage, Pyridine-2-carboxylic acid {1-(2-nitro-phenyl)-2-[(pyridine-2-ylmethyl)-carbamoyl]-ethyl}-amide], the “dissociable (ionizable) protons” value in data set [7] was “no dissociable protons”. Also, the “dissociable (ionizable) protons” value in data set [7] (listed as apo-ligand) was “no ionizable protons”. Also, in data set [8], the “solubility in methanol and ethanol” value is given as “very soluble”; the solubility in water entry is “moderately soluble”. Moreover, the “protection of deoxyribose degradation” value in data set [2] (compared to background reaction of Cu2+ alone, pH 7.4) turned out to be 50%. In data set [6] (in the presence of Cu2+), the “pH at which protons are released from H2cage, higher value” was 4.8 and the “pH at which protons are released from H2cage, lower value” is listed as 3.3.
Take `O=C([O-])CN(CC(=O)[O-])CC(=O)O.[Cu+2]` [Cu(NTA)]: in data set [3], the “Log β” value was 12.7.
